The source of these data is patent publication US11571485B2, “Peptides and antibodies for detecting changes in alzheimer's disease brain and methods of use thereof” (Sanford Burnham Prebys Medical Discovery Institute, priority 2016, dated 2023).

“Also recorded” adds a separate entry of the source. Where no end group is shown, it is not given here.

Assay [1] concerns human astrocytoma U251 cells. In words: AgNP binding to U251 cells. It counts as cell-based. How it is done:
FIG. 7 is a graphical representation showing quantity of DAG-coated silver nanoparticles (DAG-AgNPs) binding to human astrocytoma U251 cells. Cultured U251 cells were incubated with DAG-AgNPs alone, in the presence of free non-labeled control peptide, or an excess of free, non-labeled DAG (both at 200 μM), for 1 hour at 37° C. Nanoparticle binding was quantified from fluorescence micrographs using ImageJ™ software. Scale bar, 20 μm.
(§1) Cell binding experiments on U251 cells and hiPSCs were with done using peptide conjugated AgNP. U251 cells were cultured in a 96-well plate. The cells were blocked with 200 μl of 10% FCS in HBSS (Hanks' Balanced Salt Solution from Gibco) for 30 min at 37° C. Following that, DAG-AgNPs (0.5 nM concentration diluted in HBSS) alone or in the presence of free non-labeled peptide (200 μM) were incubated on the cells for 1 hour at 37° C. After washing the unbound AgNP with HBSS three times, the plates were imaged with fluorescent microscopy by looking at intrinsic emission from the FAM tag on the peptide. hiPSCs were cultured in 48 well plate and similar protocol as described above was followed, with the exception that AgNP concentration for incubation was kept at 0.15 nM. Nanoparticle binding was quantified from fluorescence micrographs using ImageJ™ software.

The test system of assay [2] is human iPS cell-derived endothelial cells (ECs) from an AD patient. As to the kind of experiment: AgNP binding to hiPSC-derived brain endothelial cells. Particulars: for Binding to AD patient iPS cell-derived endothelial cells: AD patient vs normal donor cells. The format is cell-based.
Description: Human iPS cell-derived from an AD patient and from a normal individual were differentiated into endothelial cells and the cultured cells were used in an overlay assay with DAG-coated and control AgNP.
The details of human induced pluripotent stem cells (hiPSCs) derived from Alzheimer disease patients with APP duplication, and non-demented control individuals, are described previously (Israel et al., Nature 482, 216-220 (2012)). These hiPSCs were extensively characterized and have been established as an excellent human model for AD. An additional AD hiPSC line generated from dermal fibroblasts from an individual harboring a Presenilinl (PSEN1) mutation (Coriell Institute, Cat #AG06840) was used to further validate the results from the APP lines. hiPSCs were routinely maintained on mouse embryonic fibroblast as described before (Lin et al., Nat Methods 6, 805-808 (2009); Talantova et al., Proc Natl Acad Sci USA 110, E2518-2527 (2013)). Brain microvascular endothelial cells differentiation of hiPSCs was performed using a previously described protocol (Lippmann et al., Nature biotechnology 30, 783-791 (2012), with minor modifications. Briefly, feeder-free cultures of hiPSCs were allowed to spontaneously differentiate in the absence of bFGF for 5-7 days, and then transferred to Endothelial cell (EC) medium composed of human Endothelial Serum-Free Medium™ (Invitrogen) supplemented with 20 ng/ml bFGF and 1% platelet-poor plasma-derived bovine serum (PDS; Biomedical Technologies). After 1-2 days the cells were dissociated with dispase (2 mg/ml) and were plated on 12 well plates coated with a mixture of collagen IV (400 μg/ml) and fibronectin (100 μg/ml). Cells were then cultured in EC medium until they reached confluence, after which they were split and expanded to near 100% purity. BBB-type EC identity was confirmed by flow cytometry or double immunoreactivity to the hallmark efflux transporter p-glycoprotein and other EC markers (CD31, GLUT-1, PECAM, Occludin, and Claudin-5). Furthermore, the capability of these cells to make functional tight junctions and polarized efflux activity was validated using a dual chamber efflux transport assay as described before.
as §1

In assay [3] the test system is AD and WT mouse brain sections. In words: Overlay binding of peptide-coated silver nanoparticles on frozen mouse brain sections. From the text: CASPRLSKC recognizes the AD hippocampus in tissue section overlay assay. Silver nanoparticles were coated with the CASPRLSKC peptide or a control peptide and used to overlay brain sections from AD and normal mice. Silver staining was used to visualize binding and nuclei were stained with nuclear fast red. The CASPRLSKC nanoparticles bind to elongated structures that may represent nerve fibers. These structures are not present in the normal brain.
Binding of DAG conjugated silver nanoparticles on frozen brain sections from AD or WT animals in overlay binding assay was also tested. […] This binding is restricted to the hippocampal region CA1 and the dentate gyms. Frozen coronal sections from AD and WT mice were used for overlay experiments with DAG-AgNPs. Silver staining was used to visualize binding and nuclei were stained with nuclear fast red.
Silver nanoparticles (AgNPs) with PEG coating and peptide functionality were prepared as reported previously with some modifications (Braun et al., Nature materials 13, 904-911 (2014)). AgNPs of ˜35 nm diameter were synthesized by citrate acid reduction of silver nitrate in solution. First, AgNO3 (450 mg) dissolved in 2.5 L water was stirred and heated to a boil and 50 mL water containing trisodium citrate dihydrate (500 mg, Sigma) was added. After 30 min the solution was cooled to room temperature. The resulting optical density at 405 nm was ˜10. […]

The next assay concerns human AD brain sections. In words: Ex vivo overlay binding to human AD brain sections. The note with it: overlay. How it is done:
PFA fixed sections were incubated in PBS for 10 minutes, followed by PBS-Triton-x-100 (0.2%) for 10 minutes. Sections were rinsed with PBST, mounted in a slide holder, and subsequently washed with PBS-T during 12 minutes. Slides were blocked with blocking buffer for 60 minutes at room temperature. Then, peptides were incubated at a concentration of 10 μg/mL dissolved in concentrated blocking buffer, for three hours at room temperature. Sections were then washed with three 4-minute washes of PBS-T, and subsequently fixed with PFA for 10 minutes, followed by three 3-minute washes with PBS-T. Sections were then incubated with primary antibody at 1/200 in diluted blocking buffer overnight at 4° C. Later, sections were washed with three 4-minute washes with PBS-T. Slides were then incubated with secondary antibody at 1/200 dilution in diluted blocking buffer for 30 minutes at room temperature, followed by three 4-minute washes of PBS-T. Sections were then counterstained with DAPI for 5 minutes, washed with PBS-T and mounted.
Postmortem human brain samples were obtained from the New York Brain Bank at Columbia University, New York. The patient was a person with a diagnosis of AD neuropathologic changes ([A3, B3, C3]). The normal brain tissue was obtained from BioChain Institute Inc. (Newark, Calif.). The donor was a person without any neurologic diagnosis on detailed neuropathologic evaluation. The Parkinson's disease brain tissue was obtained from UCSD Pathology bank. Frozen brain tissue was sectioned for immunohistochemistry and ex vivo overlay binding with FAM-peptides.

Take “DAG-AgNPs: DAG-coated silver nanoparticles with PEG coating, FAM-cys-x-DAG-NH2 attached (CDAGRKQKC-NH2; not fully specified (N-terminus); also: attached via extra Cys thiol to maleimide-PEG on silver nanoparticles)”: the “Binding to U251 cells” value in assay [1] (1 hour at 37° C.) is “bound robustly to these cells, much more so than non-targeted nanoparticles”. Further, in assay [1] (excess free non-labeled DAG, 200 μM), the “Inhibition of binding to U251 cells by free DAG” value is recorded as “inhibited by co-incubation with an excess of free, non-labeled DAG”. Also, the “Inhibition of AgNP binding by free DAG peptide” value in assay [2] (200 μM free non-labeled DAG) is listed as “inhibited by the presence of free DAG peptide”. Also, the “Binding to AD patient iPS cell-derived endothelial cells” value in assay [2] is on record as “bind to human iPS cell-derived endothelial cells (ECs) from an AD patient, but not to ECs derived from a normal donor; also recorded: binding to human IPS cell-derived endothelial cells (ECs) from an AD patient, but not to ECs derived from a normal donor”; in assay [2] (listed as DAG-AgNP) it was “high binding”. In assay [3] (frozen brain sections, overlay binding assay), the “Binding to AD brain sections compared to age-matched wild-type brain sections” value is “over 10 fold”. Besides, the “Binding to hippocampal CA1 region in AD brains versus WT brains” value in assay [3] (frozen coronal sections, hippocampal CA1 region) is 14 fold. The “Binding to human AD brain sections” value with human AD brain sections is given as “bind to sections from an AD patient with sporadic AD”.
